# Reference: patent US20250059172A1, “INDAZOLE COMPOUND AND PHARMACEUTICAL” (NIPPON SHINYAKU CO., LTD., priority 2021, published 2025)
# Counter-ions that a name gives are not always drawn.
# Experiments:
# human mPGES-1 = human mPGES-1 (Homo sapiens (Human), UniProt O14684); test: mPGES-1 inhibitory activity test; format: biochemical; conditions: for inhibition at 0.01 µM: 10 nM test compound; for inhibition at 0.1 µM: 100 nM test compound; for IC50: microsomes of CHO-K1 cells expressing human mPGES-1, PGH2 1 μM, PGE2 by HTRF, read-out: mPGES-1 inhibition (IC50 nM)
# Sequence of human mPGES-1 (O14684 whole entry): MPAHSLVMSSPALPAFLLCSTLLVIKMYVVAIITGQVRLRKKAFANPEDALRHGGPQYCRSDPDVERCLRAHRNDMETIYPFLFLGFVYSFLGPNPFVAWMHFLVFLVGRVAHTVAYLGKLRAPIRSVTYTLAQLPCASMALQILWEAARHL
# Description: mPGES-1 microsomal specimens were prepared by transiently transfecting CHO-K1 cells (DS Pharma Biomedical Co. Ltd) with a plasmid encoding human mPGES-1 cDNA using FuGENE 6 Transfection Reagent (Promega). The prepared mPGES-1 microsome specimens were diluted in potassium phosphate buffer of pH 7.4 comprising 2.5 mM reduced glutathione (Sigma-Aldrich), DMSO solution of a test compound or DMSO was added to a final concentration of 1% of DMSO, and then incubated at 4° C. for 20 minutes. The enzymatic reaction was then initiated by adding a solution of PGH2 (Cayman chemical) substrate of a final concentration 1 μM and incubated at 4° C. for 60 seconds. The reaction was terminated by adding a solution of ferric chloride (STREM CHEMICALS) and citric acid (Wako Pure Chemical Industries) salt to a final concentration of 5 mg/mL and 250 mM, respectively. The formed PGE2 was quantified using the HTRF kit (Cisbio International). Solutions without the test compound were used as positive controls, and solutions without the test compound and microsomal specimens were used as negative controls. 100% activity was defined as production of PGE2 in the positive control minus that in the negative control. The percentage inhibition of production of PGE2 at final concentrations of 10 nM and 100 nM of the test compound was then calculated, or IC50 values were determined using standard methods.
# human A549 cells = test: Inhibition test of PGE2 production using human A549 cells; format: cell-based; conditions: IL-1β stimulated A549 cells, 24 h, PGE2 by HTRF, read-out: A549 cell inhibition of PGE2 production IC50
# Description: 100 μL of RPMI medium (Sigma) comprising 10% FBS and human A549 cells was seeded in a 96-well plate to […] cells per well, and incubated overnight. The medium was then removed and washed with phosphate-buffered saline, and added to a DMSO solution of the test compound or RPMI medium comprising 3% FBS with DMSO to a final concentration of 0.1% DMSO. After incubation for 60 minutes, IL-1P (5 ng/well, BioLegend) was added to the solution. After incubation at 37° C. for 24 h, PGE2 in the medium was quantified using the HTRF kit (Cisbio International) and PGF2a was also quantified using the EIA kit (Cayman chemical). Solutions without the test compound were used as positive controls, and solutions without the test compound and IL-1β were used as negative controls. 100% activity was defined as production of PGE2 and PGF2a in the positive control minus those in the negative control. IC50 values were then determined using standard methods.
Compound,inhibition at 0.01 µM (human mPGES-1),IC50 (human A549 cells),inhibition at 0.1 µM (human mPGES-1),IC50 (human mPGES-1)
"O=C(Nc1cccc2c1cnn2-c1ccc(F)cc1)c1cc(CNC(=O)C2CCCC2)ccc1Cl [Example 152, 2-Chloro-5-{[(cyclopentylcarbonyl)amino]methyl}-N-[1-(4-fluorophenyl)-1H-indazol-4-yl]benzamide]",58%,7.6 nM,–,–
"O=C(Nc1cccc2c1cnn2-c1ccc(C(F)(F)F)nc1)c1cc(CNS(=O)(=O)C2CC2)ccc1Cl [Example 179, 2-Chloro-5-{[(cyclopropylsulfonyl)amino]methyl}-N-{1-[6-(trifluoromethyl)pyridin-3-yl]-1H-indazol-4-yl}benzamide]",59%,4.4 nM,95%,–
"O=C(Nc1cccc2c1cnn2-c1nccs1)c1cc(CNC(=O)C2(C(F)(F)F)CC2)ccc1Cl [Example 228, 2-Chloro-N-[1-(1,3-thiazol-2-yl)-1H-indazol-4-yl]-5-[({[1-(trifluoromethyl)cyclopropyl]carbonyl}amino)methyl]benzamide]",77%,12.9 nM,–,–
"CC(C)(CO)C(=O)NCc1ccc(Cl)c(C(=O)Nc2cccc3c2cnn3-c2cccc(OC(F)F)c2)c1 [Example 143, 2-Chloro-N-{1-[3-(difluoromethoxy)phenyl]-1H-indazol-4-yl}-5-{[(3-hydroxy-2,2-dimethylpropanoyl)amino]methyl}benzamide]",92%,17.4 nM,100%,–
"O=C(Nc1cccc2c1cnn2-c1ccncc1)c1cc(CNC(=O)C2CC2)ccc1Cl [Example 5, 2-Chloro-5-{[(cyclopropylcarbonyl)amino]methyl}-N-[1-(pyridin-4-yl)-1H-indazol-4-yl]benzamide hydrochloride]",–,688 nM,–,9.6 nM
"Cc1cncc(-n2ncc3c(NC(=O)c4cc(CNC(=O)C(C)(C)C)ccc4Cl)cccc32)c1 [Example 60, 2-Chloro-5-{[(2,2-dimethylpropanoyl)amino]methyl}-N-[1-(5-methylpyridin-3-yl)-1H-indazol-4-yl]benzamide hydrochloride]",–,10.4 nM,–,6.7 nM
"O=C(Nc1cccc2c1cnn2-c1cscn1)c1cc(CNC(=O)C2CCCC2)ccc1Cl [Example 188, 2-Chloro-5-{[(cyclopentylcarbonyl)amino]methyl}-N-[1-(1,3-thiazol-4-yl)-1H-indazol-4-yl]benzamide]",68%,102 nM,–,–
"O=C(Nc1cccc2c1cnn2-c1cncc(C(F)(F)F)c1)c1cc(CNC(=O)C2(C(F)(F)F)CC2)ccc1Cl [Example 168, 2-Chloro-5-[({[1-(trifluoromethyl)cyclopropyl]carbonyl}amino)methyl]-N-{1-[5-(trifluoromethyl)pyridin-3-yl]-1H-indazol-4-yl}benzamide]",53%,1.2 nM,92%,–
"O=C(Nc1cccc2c1cnn2-c1cncc(C(F)(F)F)c1)c1cc(CNS(=O)(=O)C2CC2)ccc1Cl [Example 172, 2-Chloro-5-{[(cyclopropylsulfonyl)amino]methyl}-N-{l-[5-(trifluoromethyl)pyridin-3-yl]-1H-indazol-4-yl}benzamide]",100%,5.6 nM,–,–
"Cc1ccc(-n2ncc3c(NC(=O)c4cc(CNC(=O)C(C)(C)CO)ccc4Cl)cccc32)cc1C(F)(F)F [Example 259, 2-Chloro-5-{[(3-hydroxy-2,2-dimethylpropanoyl)amino]methyl}-N-{1-[4-methyl-3-(trifluoromethyl)phenyl]-1H-indazol-4-yl}benzamide]",92%,0.5 nM,92%,–
"CC(C)(C)OC(=O)N1CCC(n2ncc3c(NC(=O)c4cc(CNC(=O)C(C)(C)C)ccc4Cl)cccc32)CC1 [Example 103, tert-Butyl 4-(4-{[(2-chloro-5-{[(2,2-dimethylpropanoyl)amino]methyl}phenyl)carbonyl]amino}-1H-indazol-1-yl)piperidine-1-carboxylate]",–,4 nM,–,2.7 nM
"COc1cccc(Cn2ncc3c(NC(=O)c4cc(CNC(=O)C(C)(C)C)ccc4Cl)cccc32)c1 [Example 89, 2-Chloro-5-{[(2,2-dimethylpropanoyl)amino]methyl}-N-[1-(3-methoxybenzyl)-1H-indazol-4-yl]benzamide]",–,20.7 nM,–,3.5 nM
"O=C(Nc1cccc2c1cnn2-c1cscn1)c1cc(CNS(=O)(=O)C2CC2)ccc1Cl [Example 193, 2-Chloro-5-{[(cyclopropylsulfonyl)amino]methyl}-N-[1-(1,3-thiazol-4-yl)-1H-indazol-4-yl]benzamide]",71%,33 nM,–,–
"CC(C)n1ncc2c(NC(=O)c3cc(CNC(=O)C4CCCC4)ccc3Cl)cccc21 [Example 180, 2-Chloro-5-{[(cyclopentylcarbonyl)amino]methyl}-N-[1-(propan-2-yl)-1H-indazol-4-yl]benzamide]",75%,40.6 nM,–,–
"CC(C)(C)C(=O)NCc1ccc(Cl)c(C(=O)Nc2cccc3c2cnn3CCN2CCOCC2)c1 [Example 107, 2-Chloro-5-{[(2,2-dimethylpropanoyl)amino]methyl}-N-{1-[2-(morpholin-4-yl)ethyl]-1H-indazol-4-yl}benzamide hydrochloride]",–,399 nM,–,10 nM
"CCn1ncc2c(NC(=O)c3cc(CNC(=O)C4(C(F)(F)F)CC4)ccc3Cl)cccc21 [Example 212, 2-Chloro-N-(1-ethyl-1H-indazol-4-yl)-5-[({[1-(trifluoromethyl)cyclopropyl]carbonyl}amino)methyl]benzamide]",71%,17.3 nM,–,–
"Cc1cc(OC(F)(F)F)ccc1-n1ncc2c(NC(=O)c3cc(CNC(=O)C(C)(C)C)ccc3Cl)cccc21 [Example 79, 2-Chloro-5-{[(2,2-dimethylpropanoyl)amino]methyl}-N-{1-[2-methyl-4-(trifluoromethoxy)phenyl]-1H-indazol-4-yl}benzamide]",–,3.4 nM,–,1 nM
"COc1cccc(-n2ncc3c(NC(=O)c4cc(CNC(=O)C(C)(C)C)ccc4Cl)cccc32)c1 [Example 49, 2-Chloro-5-{[(2,2-dimethylpropanoyl)amino]methyl}-N-[1-(3-methoxyphenyl)-1H-indazol-4-yl]benzamide]",–,0.9 nM,–,9.9 nM
"Cc1ccc(-n2ncc3c(NC(=O)c4cc(CNS(=O)(=O)C5CC5)ccc4Cl)cccc32)cc1C(F)(F)F [Example 260, 2-Chloro-5-{[(cyclopropylsulfonyl)amino]methyl}-N-{1-[4-methyl-3-(trifluoromethyl)phenyl]-1H-indazol-4-yl}benzamide]",89%,1 nM,101%,–
"CCOCc1ccc(-n2ncc3c(NC(=O)c4cc(CNC(=O)C(C)(C)C)ccc4Cl)cccc32)cn1 [Example 86, 2-Chloro-5-{[(2,2-dimethylpropanoyl)amino]methyl}-N-{1-[6-(ethoxymethyl)pyridin-3-yl]-1H-indazol-4-yl}benzamide hydrochloride]",–,101 nM,–,15.7 nM
"Cc1ccc(-n2ncc3c(NC(=O)c4cc(CNC(=O)CC(C)(C)C)ccc4Cl)cccc32)cc1Cl [Example 127, 2-Chloro-N-[1-(3-chloro-4-methylphenyl)-1H-indazol-4-yl]-5-{[(3,3-dimethylbutanoyl)amino]methyl}benzamide]",64%,4.7 nM,–,–
"Cn1ncc2c(NC(=O)c3cc(CNS(=O)(=O)C4CC4)ccc3Cl)cccc21 [Example 208, 2-Chloro-5-{[(cyclopropylsulfonyl)amino]methyl}-N-(1-methyl-1H-indazol-4-yl)benzamide]",63%,799 nM,68%,–
"CC(C)(C)C(=O)NCc1ccc(Cl)c(C(=O)Nc2cccc3c2cnn3-c2ccc(C(C)(C)F)nc2)c1 [Example 85, 2-Chloro-5-{[(2,2-dimethylpropanoyl)amino]methyl}-N-{1-[6-(2-fluoropropan-2-yl)pyridin-3-yl]-1H-indazol-4-yl}benzamide]",–,6 nM,–,8.6 nM
"CC(C)(C)C(=O)NCc1ccc(Cl)c(C(=O)Nc2cccc3c2cnn3-c2cncc(C(F)(F)F)c2)c1 [Example 57, 2-Chloro-5-{[(2,2-dimethylpropanoyl)amino]methyl}-N-{1-[5-(trifluoromethyl)pyridin-3-yl]-1H-indazol-4-yl}benzamide]",–,5.7 nM,–,19.8 nM
